The values below come from US20250074911A1, “MACROCYCLIC BTK INHIBITORS” (Crossfire Oncology Holding B.V., priority 2021, published 2025).

Structures are written as SMILES. Read-outs that look alike come from different tables or passages of the source.

The IC50 is the concentration needed to halve the response being measured.

In one test the test system is REC-1 T474I cell lines. Description: Cell proliferation assay REC-1 BTK T474I knock-in cells (ATPlite, 72 hours). Type of test: cell-based. The settings on record: Homo sapiens, read-out: IC50 REC-1 T474I. The method, boiled down:
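REC-1 cells carrying CRISPR knock-in mutant BTK, single-cell cloned and sequence-confirmed, were exposed to compound for 72 h and read by ATPlite luminescence. Percentage growth was calculated against the signal at the start of incubation and against untreated 0.3% DMSO wells as maximum growth.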
Background: Cellular ATP, detected with luciferase, serves as a proxy for viable cell number.

The target in test [1] is full-length BTK C481S enzyme (Homo sapiens (Human), UniProt Q06187, C481S). Description: Biochemical kinase assay BTK C481S (IMAP). The method, boiled down: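 IC50 values come from IMAP fluorescence polarization after quenching with progressive binding solution. The reaction ran 2 h at room temperature in the dark with 1.2 nM full-length C481S enzyme, 7 μM ATP and 50 nM fluorescein-labelled MBP-derived peptide, following a 1 h dark pre-incubation of compound with enzyme.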

Test [2] deals with wt-TMD8 diffuse large B-cell lymphoma cells. The experiment in a line: Cell proliferation assay wt-TMD8 (ATPlite, 120 hours). The format is cell-based. The settings on record: B-cell, read-out: IC50 wt-TMD8. The method, then: Cell proliferation assay wt-TMD8 diffuse large B-cell lymphoma cells were purchased from Tokyo Medical and Dental University and cultured in RPMI-1640 cell culture medium (cat. no. 61870036, Life Technologies), supplemented with 10% (v/v) heat-inactivated fetal bovine calf serum and 1% penicillin/[…]. 1600 cells per well (in 45 μl) were seeded in a white 384-well culture plate (cat. no. 781080, Greiner Bio-One) and allowed to rest for at least 5 hours at 37° C., 95% humidity, and 5% CO2. 5 μl compound solution was added to the cells and incubation was continued for 120 hours (5 days), followed by addition of 24 μl ATPlite 1Step™ (PerkinElmer, Groningen, The Netherlands) solution was added to each well. Luminescence was recorded on an Envision multimode reader. The cell signal at the start of incubation was recorded separately in order to distinguish between cell population growth and cell death. In addition, maximum growth was determined by incubation of a duplicate without compound in the presence of 0.3% DMSO. Percentage growth was used as the main y-axis signal.

The test system of test [3] is wt-REC-1 mantle cell lymphoma cells. The experiment in a line: Cell proliferation assay wt-REC-1 (ATPlite, 72 hours). Type of test: cell-based. The method, boiled down:
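Luminescent viability read over 72 h, start-of-incubation signal recorded separately to separate growth from cell death. Percentage growth referenced to compound-free 0.3% DMSO wells; IC50 from 4-parameter logistic fit.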

Test [4] has as its target full-length wt-BTK enzyme (Homo sapiens (Human), UniProt Q06187). Description: Biochemical kinase assay wt-BTK (IMAP). The method, boiled down: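 Compound and enzyme (final 1.2 nM) were pre-incubated for 1 h at RT, after which the reaction was started with 4 μM ATP plus 50 nM fluorescein-MBP substrate peptide. After 2 h in the dark, the IMAP progressive binding reagent stopped the reaction, and phosphorylation was read by fluorescence polarization.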

[5] abbreviates: wt-TMD8 cells, 120 hours, ATPlite.

full-length BTK C481S enzyme, sequence (Q06187 whole entry C481S): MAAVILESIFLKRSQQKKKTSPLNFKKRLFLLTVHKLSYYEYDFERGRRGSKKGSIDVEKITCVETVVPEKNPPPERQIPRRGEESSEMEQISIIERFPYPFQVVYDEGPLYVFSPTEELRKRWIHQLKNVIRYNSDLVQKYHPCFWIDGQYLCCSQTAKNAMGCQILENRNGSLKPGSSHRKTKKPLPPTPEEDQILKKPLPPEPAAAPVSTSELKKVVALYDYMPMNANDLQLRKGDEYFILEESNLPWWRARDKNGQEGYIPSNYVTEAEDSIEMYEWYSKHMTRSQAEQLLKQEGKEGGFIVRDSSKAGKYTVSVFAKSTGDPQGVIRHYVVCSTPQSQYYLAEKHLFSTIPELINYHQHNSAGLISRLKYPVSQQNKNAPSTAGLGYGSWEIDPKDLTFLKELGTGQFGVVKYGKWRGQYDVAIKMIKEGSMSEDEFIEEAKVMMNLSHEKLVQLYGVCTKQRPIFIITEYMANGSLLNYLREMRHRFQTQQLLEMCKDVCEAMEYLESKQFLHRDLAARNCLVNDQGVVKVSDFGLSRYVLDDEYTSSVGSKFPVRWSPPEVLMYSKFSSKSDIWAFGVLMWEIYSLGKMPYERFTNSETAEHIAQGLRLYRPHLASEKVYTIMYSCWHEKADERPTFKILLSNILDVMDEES
full-length wt-BTK enzyme, sequence (Q06187 whole entry): as the sequence (Q06187 whole entry C481S) above, with S481C counted along it

With `Nc1ncc2c3c1c(-c1ccc(C(=O)Nc4cc(C(F)(F)F)ccn4)cc1)nn3[C@@H]1CCC[C@H](C1)NC(=O)CCCCCC/C=C\C2` [Example 103b], the IC50 was 100 to 500 nM in the test on REC-1 T474I cell lines (Rec1, 72 hours); below 5 nM in test [1]; below 100 nM in test [2] (setting [5]); 100 to 1000 nM in test [3] (72 h; read-out: IC50 wt-REC-1); below 5 nM in test [4].

`Nc1ncc2c3c1c(-c1ccc(C(=O)Nc4ccccn4)cc1)nn3[C@@H]1CCC[C@H](C1)NC(=O)COC/C=C\C2` [Example 104b]: the IC50 was in the range of 500 to 10000 nM in the test with REC-1 T474I cell lines (Rec1, 72 hours); 5 to 50 nM in test [1]; 100 to 1000 nM in test [2] (setting [5]); 100 to 1000 nM in test [3] (72 h; read-out: IC50 wt-REC-1); 50 to 500 nM in test [4].

As for `Nc1ncc2c3c1c(-c1ccc(C(=O)Nc4cc(C(F)(F)F)ccn4)cc1)nn3[C@@H]1CCC[C@H](C1)NC(=O)CNC/C=C\C2` [Example 105], the IC50 was 500 to 10000 nM in the test with REC-1 T474I cell lines (Rec1, 72 hours); 5 to 50 nM in test [1]; 100 to 1000 nM in test [2] (setting [5]); 1000 to 10000 nM in test [3] (72 h; read-out: IC50 wt-REC-1); 5 to 50 nM in test [4].

With `Nc1ncc2c3c1c(-c1ccc(C(=O)Nc4ccccn4)cc1)nn3[C@@H]1CCC[C@H](C1)C(=O)NCCCCCCC2` [Example 118], the IC50 in the test with REC-1 T474I cell lines (Rec1, 72 hours) was 500 to 10000 nM; in test [1], below 5 nM; in test [2] (setting [5]), below 100 nM; in test [3] (72 h; read-out: IC50 wt-REC-1) it was below 100 nM; in test [4] it was below 5 nM.

On to `Nc1ncc2c3c1c(-c1ccc(C(=O)Nc4cc(C(F)(F)F)ccn4)cc1)nn3[C@@H]1CCC[C@H](C1)C(=O)NCCCCCCCC2` [Example 119], for which the IC50 with REC-1 T474I cell lines (Rec1, 72 hours) was 500 to 10000 nM; in test [1], below 5 nM; in test [2] (setting [5]), below 100 nM; in test [3] (72 h; read-out: IC50 wt-REC-1) it was below 100 nM; in test [4], below 5 nM.

As to `Nc1ncc2c3c1c(-c1ccc(C(=O)Nc4ccccn4)cc1)nn3[C@@H]1CCC[C@H](C1)C(=O)NCCCCCCCCC2` [Example 123], the IC50 in the test with REC-1 T474I cell lines (Rec1, 72 hours) is 500 to 10000 nM; in test [1], below 5 nM; in test [2] (setting [5]), below 100 nM; in test [3] (72 h; read-out: IC50 wt-REC-1), 100 to 1000 nM; in test [4], below 5 nM.

Turning to `[2H]C1CCCCNC(=O)[C@@H]2CCC[C@H](C2)n2nc(-c3ccc(C(=O)Nc4cc(C(F)(F)F)ccn4)cc3)c3c(N)ncc(c32)C1[2H]` (stereo partly drawn) [Example 128], the IC50 in the test with REC-1 T474I cell lines (Rec1, 72 hours) is 100 to 500 nM; in test [1], below 5 nM; in test [2] (setting [5]), below 100 nM; in test [3] (72 h; read-out: IC50 wt-REC-1), 100 to 1000 nM; in test [4], below 5 nM.

For the compound `CN1C/C=C/c2cnc(N)c3c(-c4ccc(C(=O)Nc5cc(C(F)(F)F)ccn5)cc4)nc(n23)[C@@H]2CCCN(C2)C(=O)CCCC1` [Example 129], the IC50 with REC-1 T474I cell lines (Rec1, 72 h) is 500 to 10000 nM; in test [1] it was below 5 nM; in test [2] (120 h) it was below 100 nM; in test [3] (72 h, read-out: IC50 wt-REC-1) it was 100 to 1000 nM; in test [4], below 5 nM.

As for `[2H]C1([2H])/C=C/c2cnc(N)c3c(-c4ccc(C(=O)Nc5cc(C(F)(F)F)ccn5)cc4)nn(c23)[C@@H]2CCC[C@H](C2)NC(=O)CCCC1` [Example 137], the IC50 with REC-1 T474I cell lines (Rec1, 72 hours) is below 100 nM; in test [1], below 5 nM; in test [2] (setting [5]) it was below 100 nM; in test [3] (72 h; read-out: IC50 wt-REC-1) it was below 100 nM; in test [4], below 5 nM.

Take `Nc1ncc2c3c1c(-c1ccc(C(=O)Nc4cc(C(F)(F)F)ccn4)cc1)nn3[C@@H]1CCC[C@H](C1)NC(=O)CCCC(F)(F)/C=C/2` [Example 138]: the IC50 with REC-1 T474I cell lines (Rec1, 72 hours) is 500 to 10000 nM; in test [1] it was 5 to 50 nM; in test [2] (setting [5]), below 100 nM; in test [3] (72 h; read-out: IC50 wt-REC-1), below 100 nM; in test [4], 5 to 50 nM.

For `CN1CCCCc2cnc(N)c3c(-c4ccc(C(=O)Nc5cc(C(F)(F)F)ccn5)cc4)nn(c23)[C@@H]2CCC[C@H](C2)C(=O)NCC1` [Example 140], the IC50 was 500 to 10000 nM in the test with REC-1 T474I cell lines (Rec1, 72 hours); below 5 nM in test [1]; below 100 nM in test [2] (setting [5]); 1000 to 10000 nM in test [3] (72 h; read-out: IC50 wt-REC-1); below 5 nM in test [4].

With `C[C@@H]1CCn2nc(-c3ccc(C(=O)Nc4cc(C(F)(F)F)ccn4)cc3)c3c(N)ncc(c32)/C=C/CN2CCN[C@H](C2)C(=O)N1` [Example 142], the IC50 was 500 to 10000 nM with REC-1 T474I cell lines (Rec1, 72 hours); below 5 nM in test [1]; below 100 nM in test [2] (setting [5]); 100 to 1000 nM in test [3] (72 h; read-out: IC50 wt-REC-1); below 5 nM in test [4].

As to `CC1NC/C=C/c2cnc(N)c3c(-c4ccc(C(=O)Nc5cc(C(F)(F)F)ccn5)cc4)nn(c23)[C@@H]2CCC[C@H](C2)NC1=O` (stereo partly drawn) [Example 145], the IC50 in the test with REC-1 T474I cell lines (Rec1, 72 hours) was 500 to 10000 nM; in test [1], below 5 nM; in test [2] (setting [5]), below 100 nM; in test [3] (72 h; read-out: IC50 wt-REC-1) it was 1000 to 10000 nM; in test [4], below 5 nM.

Consider `C[C@@H]1CCn2nc(-c3ccc(C(=O)Nc4cc(C(F)(F)F)ccn4)cc3)c3c(N)ncc(c32)/C=C/CN2CC[C@H](C2)C(=O)N1` [Example 148], for which the IC50 in the test with REC-1 T474I cell lines (Rec1, 72 hours) is 500 to 10000 nM; in test [1] it was below 5 nM; in test [2] (setting [5]) it was below 100 nM; in test [3] (72 h; read-out: IC50 wt-REC-1) it was 100 to 1000 nM; in test [4], below 5 nM.

`C[C@@H]1CNC(=O)[C@@H]2CCC[C@H](C2)n2nc(-c3ccc(C(=O)Nc4cc(C(F)(F)F)ccn4)cc3)c3c(N)ncc(c32)/C=C/CO1` [Example 149]: the IC50 in the test on REC-1 T474I cell lines (Rec1, 72 hours) is below 100 nM; in test [1], below 5 nM; in test [2] (setting [5]), below 100 nM; in test [3] (72 h; read-out: IC50 wt-REC-1), 100 to 1000 nM; in test [4], below 5 nM.

As to `C[C@@H]1CNC(=O)[C@@H]2CCC[C@H](C2)n2nc(-c3ccc(C(=O)Nc4cc(C(F)(F)F)ccn4)cc3)c3c(N)ncc(c32)/C=C/CN1C` [Example 154], the IC50 in the test on REC-1 T474I cell lines (Rec1, 72 hours) is 500 to 10000 nM; in test [1], below 5 nM; in test [2] (setting [5]) it was below 100 nM; in test [3] (72 h; read-out: IC50 wt-REC-1), 1000 to 10000 nM; in test [4] it was below 5 nM.

In the case of `C[C@@H]1CCn2nc(-c3ccc(C(=O)Nc4cc(C(F)(F)F)ccn4)cc3)c3c(N)ncc(c32)/C=C/CCO[C@@H](C)CC(=O)N1` [Example 158], the IC50 was 500 to 10000 nM in the test on REC-1 T474I cell lines (Rec1, 72 hours); below 5 nM in test [1]; below 100 nM in test [2] (setting [5]); 100 to 1000 nM in test [3] (72 h; read-out: IC50 wt-REC-1); below 5 nM in test [4].

With `C[C@@H]1CC(=O)N[C@@H]2CCC[C@H](C2)n2nc(-c3ccc(C(=O)Nc4cc(C(F)(F)F)ccn4)cc3)c3c(N)ncc(c32)/C=C/CN1` [Example 160], the IC50 is 100 to 500 nM with REC-1 T474I cell lines (Rec1, 72 hours); below 5 nM in test [1]; below 100 nM in test [2] (setting [5]); below 100 nM in test [3] (72 h; read-out: IC50 wt-REC-1); below 5 nM in test [4].

Consider `C[C@H]1CC(=O)N[C@@H]2CCC[C@H](C2)n2nc(-c3ccc(C(=O)Nc4cc(C#N)ccn4)cc3)c3c(N)ncc(c32)/C=C/CCO1` [Example 161], for which the IC50 was below 100 nM in the test on REC-1 T474I cell lines (Rec1, 72 hours); below 5 nM in test [1]; below 100 nM in test [2] (setting [5]); below 100 nM in test [3] (72 h; read-out: IC50 wt-REC-1); below 5 nM in test [4].

For the compound `CC(=O)N1CCC/C=C/c2cnc(N)c3c(-c4ccc(C(=O)Nc5cc(C(F)(F)F)ccn5)cc4)nn(c23)[C@@H]2CCC[C@H](C2)NC(=O)C1` [Example 167], the IC50 with REC-1 T474I cell lines (Rec1, 72 hours) was 100 to 500 nM; in test [1] it was below 5 nM; in test [2] (setting [5]), below 100 nM; in test [3] (72 h; read-out: IC50 wt-REC-1), below 100 nM; in test [4], below 5 nM.

`C[C@@H]1CCn2nc(-c3cnn(Cc4ccccc4)c3)c3c(N)ncc(c32)/C=C/CCCCCC(=O)N1` [Example 171]: the IC50 is 500 to 10000 nM in the test with REC-1 T474I cell lines (Rec1, 72 hours); 50 to 500 nM in test [1]; 1000 to 10000 nM in test [2] (setting [5]); 1000 to 10000 nM in test [3] (72 h; read-out: IC50 wt-REC-1); 50 to 500 nM in test [4].
